Key:
[1] = target: MDR1 (ABCB1, P-glycoprotein) (Homo sapiens, UniProt P08183); assay: Substrate activity at human MDR1 expressed in LLC-PK1 cells assessed as efflux ratio of permeability across basolateral to apical over apical to basolateral side at 5 uM; assay type: ADME, cell-based
[2] = target: AMP-activated protein kinase (AMPK) alpha-1/beta-1/gamma-1 (Homo sapiens, UniProt P54619+Q13131+Q9Y478); assay: Inhibition of full-length recombinant human GST and His-tagged AMPK alpha1/beta1/gamma1 expressed in baculovirus expression system by LanthaScreen assay
[3] = target: SRSF protein kinase 1 (Homo sapiens, UniProt Q96SB4); assay: Inhibition of full-length recombinant human His-tagged SRPK1 expressed in baculovirus expression system by Z'-LYTE assay
[4] = Volume of distribution in Sprague-Dawley rat at 1 mL/kg, iv administered through catheter or 5 mL/kg administered through gastric gavage measured after 24 hrs by LC-MS/MS analysis; assay type: ADME, organism-based; conditions: in vivo
[5] = target: NT-3 growth factor receptor (Homo sapiens, UniProt Q16288); assay: Inhibition of recombinant human His-tagged cytoplasmic NTRK3 expressed in baculovirus expression system by Z'-LYTE assay
[6] = target: Aurora kinase B (Homo sapiens, UniProt Q96GD4); assay: Inhibition of full-length recombinant human His-tagged AURKB expressed in baculovirus expression system by LanthaScreen assay
[7] = target: Mast/stem cell growth factor receptor Kit (Homo sapiens, UniProt P10721); assay: Inhibition of recombinant human His-tagged cytoplasmic KIT expressed in baculovirus expression system by Z'-LYTE assay
[8] = target: Tyrosine-protein kinase SYK (Homo sapiens, UniProt P43405); assay: Inhibition of full-length recombinant human N-terminal GST-tagged cytoplasmic SYK expressed in baculovirus expression system by Z'-LYTE assay
[9] = target: Leucine-rich repeat serine/threonine-protein kinase 2 (Homo sapiens, UniProt Q5S007); assay: Inhibition of recombinant human GST-tagged LRRK2 catalytic domain expressed in baculovirus expression system by Adapta assay
[10] = target: Tyrosine-protein kinase BTK (Homo sapiens, UniProt Q06187); assay: Inhibition of full-length recombinant human His-tagged BTK expressed in baculovirus expression system by Z'-LYTE assay
[11] = target: RAC-alpha serine/threonine-protein kinase (Homo sapiens, UniProt P31749); assay: Inhibition of full-length recombinant human His-tagged AKT1-alpha expressed in baculovirus expression system by Z'-LYTE assay
[12] = target: Dual specificity mitogen-activated protein kinase kinase 1 (Homo sapiens, UniProt Q02750); assay: Inhibition of full-length recombinant human His-tagged MAP2K1 expressed in baculovirus expression system by LanthaScreen assay
Chain of Dual specificity mitogen-activated protein kinase kinase 1 (Q02750 whole entry): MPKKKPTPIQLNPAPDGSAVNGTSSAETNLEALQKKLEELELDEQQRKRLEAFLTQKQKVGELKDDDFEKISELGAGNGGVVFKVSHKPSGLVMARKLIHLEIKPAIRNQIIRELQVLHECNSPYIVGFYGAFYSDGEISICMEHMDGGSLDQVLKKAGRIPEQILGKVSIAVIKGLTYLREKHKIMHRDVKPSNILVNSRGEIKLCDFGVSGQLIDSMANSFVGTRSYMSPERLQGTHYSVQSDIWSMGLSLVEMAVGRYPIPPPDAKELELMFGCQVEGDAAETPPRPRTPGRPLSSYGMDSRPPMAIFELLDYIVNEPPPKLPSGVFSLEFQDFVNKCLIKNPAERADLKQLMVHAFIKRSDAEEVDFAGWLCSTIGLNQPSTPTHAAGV

[13] = target: T1, Serine/threonine-protein kinase Nek2 (Homo sapiens, UniProt P51955); assay: Inhibition of full-length recombinant human His-tagged NEK2 expressed in baculovirus expression system by Z'-LYTE assay
T1 sequence (P51955 whole entry): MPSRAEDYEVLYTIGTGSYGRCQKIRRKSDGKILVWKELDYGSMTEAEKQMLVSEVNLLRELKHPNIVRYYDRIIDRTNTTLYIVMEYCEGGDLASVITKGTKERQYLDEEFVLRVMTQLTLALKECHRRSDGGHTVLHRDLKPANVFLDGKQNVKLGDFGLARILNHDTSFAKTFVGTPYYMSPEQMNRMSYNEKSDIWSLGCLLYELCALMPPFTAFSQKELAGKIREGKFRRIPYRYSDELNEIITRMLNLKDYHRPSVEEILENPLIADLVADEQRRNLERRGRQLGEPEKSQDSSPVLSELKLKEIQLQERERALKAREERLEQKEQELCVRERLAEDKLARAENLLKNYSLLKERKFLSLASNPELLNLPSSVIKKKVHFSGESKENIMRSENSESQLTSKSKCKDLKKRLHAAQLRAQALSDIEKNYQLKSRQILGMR

[14] = target: Insulin receptor (Homo sapiens, UniProt P06213); assay: Inhibition of recombinant human GST-tagged cytoplasmic INSR (1011 to 1382 residues) expressed in baculovirus expression system by Z'-LYTE assay
[15] = target: Serine/threonine-protein kinase Nek4 (Homo sapiens, UniProt P51957); assay: Inhibition of full-length recombinant human GST-tagged NEK4 expressed in baculovirus expression system by Z'-LYTE assay
Chain of Serine/threonine-protein kinase Nek4 (P51957 whole entry): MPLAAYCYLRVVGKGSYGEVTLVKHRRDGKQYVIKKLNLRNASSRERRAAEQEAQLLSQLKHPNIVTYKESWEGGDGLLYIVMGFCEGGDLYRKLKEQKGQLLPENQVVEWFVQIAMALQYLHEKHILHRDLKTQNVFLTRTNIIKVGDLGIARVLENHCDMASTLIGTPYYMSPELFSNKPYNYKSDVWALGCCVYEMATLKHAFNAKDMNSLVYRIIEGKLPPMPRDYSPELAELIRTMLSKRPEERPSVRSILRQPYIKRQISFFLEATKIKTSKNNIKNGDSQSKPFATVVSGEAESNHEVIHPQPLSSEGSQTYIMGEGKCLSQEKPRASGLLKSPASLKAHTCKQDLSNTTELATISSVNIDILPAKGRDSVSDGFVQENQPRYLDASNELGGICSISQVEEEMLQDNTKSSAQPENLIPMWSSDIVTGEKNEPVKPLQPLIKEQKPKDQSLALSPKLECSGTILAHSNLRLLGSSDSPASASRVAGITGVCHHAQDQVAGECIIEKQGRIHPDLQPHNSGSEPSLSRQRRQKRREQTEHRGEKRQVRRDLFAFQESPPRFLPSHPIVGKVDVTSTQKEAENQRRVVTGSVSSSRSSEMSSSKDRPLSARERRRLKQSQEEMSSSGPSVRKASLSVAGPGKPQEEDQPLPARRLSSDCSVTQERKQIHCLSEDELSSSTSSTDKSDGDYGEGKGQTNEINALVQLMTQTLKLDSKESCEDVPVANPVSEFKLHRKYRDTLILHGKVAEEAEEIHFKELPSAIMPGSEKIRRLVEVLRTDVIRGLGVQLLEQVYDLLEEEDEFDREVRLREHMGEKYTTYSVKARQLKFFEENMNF

[16] = target: Serine/threonine-protein kinase B-raf (Homo sapiens, UniProt P15056); assay: Inhibition of full-length recombinant human GST-tagged BRAF expressed in baculovirus expression system by Z'-LYTE assay
Chain of Serine/threonine-protein kinase B-raf (P15056 whole entry, the tested form may be a part): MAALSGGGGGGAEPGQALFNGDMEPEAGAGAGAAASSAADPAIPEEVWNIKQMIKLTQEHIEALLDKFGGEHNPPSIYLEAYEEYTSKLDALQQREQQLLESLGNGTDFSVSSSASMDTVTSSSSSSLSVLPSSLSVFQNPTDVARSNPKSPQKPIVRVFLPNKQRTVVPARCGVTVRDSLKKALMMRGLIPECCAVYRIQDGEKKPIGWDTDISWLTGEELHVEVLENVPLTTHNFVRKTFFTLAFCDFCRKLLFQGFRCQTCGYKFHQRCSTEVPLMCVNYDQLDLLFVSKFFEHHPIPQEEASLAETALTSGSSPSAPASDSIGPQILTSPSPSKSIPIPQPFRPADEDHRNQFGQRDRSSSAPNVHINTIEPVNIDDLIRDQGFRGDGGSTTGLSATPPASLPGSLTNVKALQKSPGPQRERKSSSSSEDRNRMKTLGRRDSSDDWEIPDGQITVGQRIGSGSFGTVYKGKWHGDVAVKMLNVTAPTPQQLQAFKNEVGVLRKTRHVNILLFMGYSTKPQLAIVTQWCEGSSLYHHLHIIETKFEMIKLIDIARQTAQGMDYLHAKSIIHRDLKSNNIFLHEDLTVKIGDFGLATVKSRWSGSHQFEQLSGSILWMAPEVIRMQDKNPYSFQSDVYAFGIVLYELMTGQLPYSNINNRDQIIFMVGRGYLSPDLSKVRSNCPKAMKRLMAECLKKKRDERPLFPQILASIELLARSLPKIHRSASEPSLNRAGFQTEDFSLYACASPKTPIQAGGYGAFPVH

[17] = target: Ribosomal protein S6 kinase beta-1 (Homo sapiens, UniProt P23443); assay: Inhibition of full-length recombinant human GST-tagged RPS6KB1 catalytic domain expressed in baculovirus expression system by Z'-LYTE assay
Chain of Ribosomal protein S6 kinase beta-1 (P23443 whole entry, the tested form may be a part): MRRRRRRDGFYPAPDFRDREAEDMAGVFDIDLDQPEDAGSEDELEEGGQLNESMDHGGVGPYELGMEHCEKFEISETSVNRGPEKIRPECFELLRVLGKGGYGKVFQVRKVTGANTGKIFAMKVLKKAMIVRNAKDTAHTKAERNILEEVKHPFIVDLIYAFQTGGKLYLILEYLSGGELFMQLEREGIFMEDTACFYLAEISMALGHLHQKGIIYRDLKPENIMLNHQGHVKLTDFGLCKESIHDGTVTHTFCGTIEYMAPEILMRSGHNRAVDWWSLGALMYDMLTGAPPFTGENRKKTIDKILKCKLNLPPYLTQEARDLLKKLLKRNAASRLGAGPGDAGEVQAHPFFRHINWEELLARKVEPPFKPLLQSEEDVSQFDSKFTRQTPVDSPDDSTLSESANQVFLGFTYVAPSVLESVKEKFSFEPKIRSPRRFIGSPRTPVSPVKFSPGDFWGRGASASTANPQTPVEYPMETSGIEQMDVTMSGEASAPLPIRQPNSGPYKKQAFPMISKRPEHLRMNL

[18] = target: Interleukin-1 receptor-associated kinase 1 (Homo sapiens, UniProt P51617); assay: Inhibition of recombinant human GST-tagged IRAK1 (194 to 712 residues) catalytic domain expressed in baculovirus expression system by Adapta assay
Chain of Interleukin-1 receptor-associated kinase 1 (P51617 whole entry, the tested form may be a part): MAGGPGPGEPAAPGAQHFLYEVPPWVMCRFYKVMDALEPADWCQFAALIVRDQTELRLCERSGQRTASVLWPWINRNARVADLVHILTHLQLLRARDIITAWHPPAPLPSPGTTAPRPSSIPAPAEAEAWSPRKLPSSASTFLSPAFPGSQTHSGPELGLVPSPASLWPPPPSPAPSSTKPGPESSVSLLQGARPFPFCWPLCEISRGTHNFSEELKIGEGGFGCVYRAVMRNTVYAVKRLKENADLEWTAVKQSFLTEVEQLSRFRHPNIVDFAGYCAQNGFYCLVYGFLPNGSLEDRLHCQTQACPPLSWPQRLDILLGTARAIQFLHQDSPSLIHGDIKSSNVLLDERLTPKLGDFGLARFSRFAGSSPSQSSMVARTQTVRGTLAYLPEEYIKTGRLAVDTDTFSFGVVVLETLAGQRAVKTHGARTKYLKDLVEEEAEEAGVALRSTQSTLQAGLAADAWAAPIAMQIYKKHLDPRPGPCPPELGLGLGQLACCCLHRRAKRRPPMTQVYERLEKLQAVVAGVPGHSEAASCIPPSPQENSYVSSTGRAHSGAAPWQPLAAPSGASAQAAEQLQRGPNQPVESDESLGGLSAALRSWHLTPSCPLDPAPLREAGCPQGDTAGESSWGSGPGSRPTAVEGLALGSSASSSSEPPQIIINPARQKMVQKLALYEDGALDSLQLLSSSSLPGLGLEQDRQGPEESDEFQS

[19] = target: Cyclin-dependent kinase 7 (Homo sapiens, UniProt P50613); assay: Inhibition of full-length recombinant human His-tagged CDK7 expressed in baculovirus expression system by Adapta assay
Chain of Cyclin-dependent kinase 7 (P50613 whole entry): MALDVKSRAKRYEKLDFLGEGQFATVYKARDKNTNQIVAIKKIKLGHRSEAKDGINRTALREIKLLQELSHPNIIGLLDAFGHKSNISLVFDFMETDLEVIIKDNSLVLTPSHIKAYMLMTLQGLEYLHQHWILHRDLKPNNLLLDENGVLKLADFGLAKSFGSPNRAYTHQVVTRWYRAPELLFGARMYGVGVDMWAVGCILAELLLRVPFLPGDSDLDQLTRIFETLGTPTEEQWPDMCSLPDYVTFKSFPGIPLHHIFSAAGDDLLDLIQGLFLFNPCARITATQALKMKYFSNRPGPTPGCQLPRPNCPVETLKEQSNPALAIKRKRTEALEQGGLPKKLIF

Chain of MDR1 (ABCB1, P-glycoprotein) (P08183 whole entry): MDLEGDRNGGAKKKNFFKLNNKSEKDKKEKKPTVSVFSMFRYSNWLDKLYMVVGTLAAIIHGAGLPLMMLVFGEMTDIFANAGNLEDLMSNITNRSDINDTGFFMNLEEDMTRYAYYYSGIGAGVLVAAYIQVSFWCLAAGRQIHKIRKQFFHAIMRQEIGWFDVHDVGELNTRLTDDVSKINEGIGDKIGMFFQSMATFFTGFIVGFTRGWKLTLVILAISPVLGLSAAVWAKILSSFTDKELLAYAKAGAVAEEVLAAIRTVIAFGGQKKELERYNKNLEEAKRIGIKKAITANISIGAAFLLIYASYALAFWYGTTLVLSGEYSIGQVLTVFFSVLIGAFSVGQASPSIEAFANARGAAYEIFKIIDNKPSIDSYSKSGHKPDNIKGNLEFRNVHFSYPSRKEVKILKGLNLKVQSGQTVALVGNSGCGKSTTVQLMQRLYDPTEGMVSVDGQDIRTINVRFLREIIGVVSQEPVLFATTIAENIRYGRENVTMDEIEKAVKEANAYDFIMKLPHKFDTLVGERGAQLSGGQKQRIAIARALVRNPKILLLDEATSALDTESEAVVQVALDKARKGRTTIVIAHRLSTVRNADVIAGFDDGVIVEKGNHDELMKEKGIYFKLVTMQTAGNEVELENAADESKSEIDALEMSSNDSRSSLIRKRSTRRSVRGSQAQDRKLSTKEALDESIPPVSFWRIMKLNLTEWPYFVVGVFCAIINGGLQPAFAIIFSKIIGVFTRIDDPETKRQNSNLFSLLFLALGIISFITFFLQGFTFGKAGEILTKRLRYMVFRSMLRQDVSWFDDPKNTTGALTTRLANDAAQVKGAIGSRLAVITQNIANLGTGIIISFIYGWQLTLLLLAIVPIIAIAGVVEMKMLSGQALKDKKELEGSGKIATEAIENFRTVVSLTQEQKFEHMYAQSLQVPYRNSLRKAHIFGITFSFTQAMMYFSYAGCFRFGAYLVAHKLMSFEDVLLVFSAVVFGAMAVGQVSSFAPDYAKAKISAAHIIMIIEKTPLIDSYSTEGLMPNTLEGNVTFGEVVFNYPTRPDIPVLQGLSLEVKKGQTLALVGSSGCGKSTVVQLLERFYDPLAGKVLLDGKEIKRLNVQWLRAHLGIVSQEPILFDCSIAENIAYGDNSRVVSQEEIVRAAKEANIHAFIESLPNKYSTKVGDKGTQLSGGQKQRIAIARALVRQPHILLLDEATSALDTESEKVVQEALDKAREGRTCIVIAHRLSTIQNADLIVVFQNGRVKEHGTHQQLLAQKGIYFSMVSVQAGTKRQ

Structure (SMILES)	efflux ratio at 5 µM [1]	IC50 [2]	IC50 [3]	Vd [4]	IC50 [5]	IC50 [6]	IC50 [7]	IC50 [8]	IC50 [9]	IC50 [10]	IC50 [11]	IC50 [12]	IC50 [13]	IC50 [14]	IC50 [15]	IC50 [16]	IC50 [17]	IC50 [18]	IC50 [19]
Cn1cc(-c2cnc3c(-c4csc(C(=O)NCC(F)(F)F)c4)cnn3c2)cn1	1.4	0.026 µM	28 µM	0.77 L/kg	0.12 µM	< 0.01 µM	0.81 µM	0.75 µM	< 0.01 µM	0.36 µM	> 100 µM	12 µM	> 100 µM	> 100 µM	0.24 µM	1.5 µM	0.11 µM	0.019 µM	0.053 µM
Cc1sc(C(=O)N[C@@H]2[C@H](N)CCCC2(F)F)cc1-c1cnn2cc(Cl)cnc12	2.9	0.053 µM	12 µM	1.3 L/kg	1.4 µM	4.6 µM	> 100 µM	12 µM	0.062 µM	13 µM	0.87 µM	1.1 µM	13 µM	> 100 µM	0.48 µM	1.1 µM	1.5 µM	1.9 µM	< 0.01 µM
O=C(NCC(F)(F)F)c1cc(-c2cnn3cc(-c4ccc(OCCN5CCCCC5)cc4)cnc23)cs1		< 0.01 µM	> 100 µM	14.2 L/kg	0.38 µM	0.033 µM	2.7 µM	0.44 µM	0.014 µM	0.29 µM	24 µM	7.2 µM	16 µM	55 µM	0.16 µM	0.55 µM	0.088 µM	< 0.01 µM	0.03 µM
Cn1cc(-c2cnc3c(-c4csc(C(=O)N[C@@H]5CCCC[C@@H]5N)c4)cnn3c2)cn1 (racemic)	24	0.0046 µM	0.14 µM	29 L/kg	0.013 µM	0.028 µM	0.69 µM	0.042 µM	0.0031 µM	< 0.001 µM	0.08 µM	0.12 µM	0.95 µM	> 10 µM	0.048 µM	0.019 µM	0.008 µM	0.009 µM	0.0041 µM

From ChEMBL document CHEMBL4477252, “Optimization of microtubule affinity regulating kinase (MARK) inhibitors with improved physical properties” (Bioorg Med Chem Lett, 2016)
